US12495798B2, “Nicotinamide compound and herbicidal composition comprising compound” (KOREA RESEARCH INSTITUTE OF CHEMICAL TECHNOLOGY, priority 2019, dated 2025)

Tests used:
wheat = assay: Phytotoxicity test for upland field crops (foliar treatment test); type: in vivo; parameters: key: 0 (no harm); 9 (complete withered)
Method in brief: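 Spray-booth foliar treatment of greenhouse-grown crops at 19˜300 g a.i./ha. Visual crop injury was scored 0–9 against untreated plants at 7 and 14 days.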

black nightshade = assay: Herbicidal activity test against upland field weeds (soil treatment test); type: in vivo; parameters: key to Soil treatment herbicidal activity, black nightshade: 0 (no control); 100 (complete control); conditions: scale 0 (no control) to 100 (complete control)
Method in brief: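 Weed control scored visually on a 0 (none) to 100 (complete) scale versus untreated pots at 14 or 21 days in greenhouse (30±5 °C, 14 h light). Test compounds, 50 or 75 g a.i./ha in 50% acetone/0.1% Tween-20, hand-sprayed onto soil one day post-sowing.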

[1] = 50 g ai/ha, Wheat (7 days after treatment)
[2] = 50 g ai/ha, Wheat (14 days after treatment)
[3] = 100 g ai/ha, Wheat (7 days after treatment)
[4] = 100 g ai/ha, Wheat (14 days after treatment)

Row | SMILES | Foliar treatment phytotoxicity, Wheat (wheat; [1]) | Foliar treatment phytotoxicity, Wheat (wheat; [2]) | Foliar treatment phytotoxicity, Wheat (wheat; [3]) | Foliar treatment phytotoxicity, Wheat (wheat; [4]) | Soil treatment herbicidal activity, black nightshade (black nightshade; 50 g ai/ha) | pest or weed control at 50 g/ha (black nightshade; Solanum nigrum, 50 g ai/ha) [%] | Soil treatment herbicidal activity, black nightshade (black nightshade; 75 g ai/ha)
1 | Cn1nnc(COCc2nc(C(F)(F)F)ccc2C(=O)N(C(=O)c2ccccc2)c2nnnn2C)n1 [Compound No. 2-68, N-benzoyl-N-(1-methyl-1H-tetrazol-5-yl)-2-(((2-methyl-2H-tetrazol-5-yl)methoxy)methyl)-6-(trifluoromethyl)nicotinamide] | 0 | 0 | 1 | 0 | – | – | –
2 | Cn1nnc(COCc2nc(C(F)(F)F)ccc2C(=O)N(c2nnnn2C)S(C)(=O)=O)n1 [Compound No. 2-69, N-(1-methyl-1H-tetrazol-5-yl)-2-(((2-methyl-2H-tetrazol-5-yl)methoxy)methyl)-N-(methylsulfonyl)-6-(trifluoromethyl)nicotinamide] | 0 | 0 | – | – | – | – | –
3 | COC(=O)OC(C)N(C(=O)c1ccc(C(F)(F)F)nc1COCc1nnn(C)n1)c1nnnn1C (stereo not drawn) [Compound No. 4-4, methyl(1-(N-(1-methyl-1H-tetrazol-5-yl)-2-(((2-methyl-2H-tetrazol-5-yl)methoxy)methyl)-6-(trifluoromethyl)nicotinamido)ethyl)carbonate] | 1 | 0 | 2 | 2 | 100 | – | –
4 | CCOC(=O)OC(C)n1nnn(C)c1=NC(=O)c1ccc(C(F)(F)F)nc1CSCc1nnn(C)n1 (stereo not drawn) [Compound No. 4-10, ethyl (1-(4-methyl-5-((2-((((2-methyl-2H-tetrazol-5-yl)methyl)thio)methyl)-6-(trifluoromethyl)nicotinoyl)imino)-4,5-dihydro-1H-tetrazol-1-yl)ethyl)carbonate] | 0 | 0 | 0 | 0 | 100 | – | –
5 | CCOC(=O)OC(C)N(C(=O)c1ccc(C(F)(F)F)nc1COCc1nnn(C)n1)c1nnnn1C (stereo not drawn) [Compound No. 4-8, ethyl(1-(N-(1-methyl-1H-tetrazol-5-yl)-2-(((2-methyl-2H-tetrazol-5-yl)methoxy)methyl)-6-(trifluoromethyl)nicotinamido)ethyl)carbonate] | 2 | 1 | 2 | 2 | 100 | – | –
6 | COc1nc(COCc2nc(C(F)(F)F)ccc2C(=O)Nc2nnnn2C)nn1C [Compound No. 2-129, 2-(((5-methoxy-1-methyl-1H-1,2,4-triazol-3-yl)methoxy)methyl)-N-(1-methyl-1H-tetrazol-5-yl)-6-(trifluoromethyl)nicotinamide] | 1 | 1 | 2 | 2 | 100 | – | –
7 | Cc1nc(COCc2nc(C(F)(F)F)ccc2C(=S)Nc2nnnn2C)nn1C [Compound No. 2-117, 2-(((1,5-dimethyl-1H-1,2,4-triazol-3-yl)methoxy)methyl)-N-(1-methyl-1H-tetrazol-5-yl)-6-(trifluoromethyl)pyridin-3-carbothioamide] | 0 | 0 | 1 | 0 | – | – | –
8 | Cn1nnc(CSCc2nc(C(F)F)ccc2C(=O)Nc2nnnn2C)n1 [Compound No. 2-108, 6-(difluoromethyl)-N-(1-methyl-1H-tetrazol-5-yl)-2-((((2-methyl-2H-tetrazol-5-yl)methyl)thio)methyl)nicotinamide] | 3 | 3 | 4 | 4 | – | 30 | –
9 | CN(Cc1nnn(C)n1)c1nc(C(F)(F)F)ccc1C(=O)Nc1nnnn1C [Compound No. 2-26, 2-(methyl((2-methyl-2H-tetrazol-5-yl)methyl)amino)-N-(1-methyl-1H-tetrazol-5-yl)-6-(trifluoromethyl)nicotinamide] | 1 | 0 | 1 | 0 | – | – | 100
10 | Cn1ncnc1COc1nc(C(F)(F)F)ccc1C(=O)Nc1nnnn1C [Compound No. 1-45, 2-((1-methyl-1H-1,2,4-triazol-5-yl)methoxy)-N-(1-methyl-1H-tetrazol-5-yl)-6-(trifluoromethyl)nicotinamide] | 0 | 0 | 0 | 0 | 100 | – | –
11 | Cn1cnc(COCc2nc(C(F)F)ccc2C(=O)Nc2nnnn2C)n1 [Compound No. 2-85] | 0 | 0 | 2 | 0 | 93 | – | –
12 | Cn1nnc(COCc2nc(C(F)(F)C(F)(F)F)ccc2C(=O)Nc2nnnn2C)n1 [Compound No. 2-81, N-(1-methyl-1H-tetrazol-5-yl)-2-(((2-methyl-2H-tetrazol-5-yl)methoxy)methyl)-6-(perfluoroethyl)nicotinamide] | 0 | 0 | 0 | 0 | – | – | –
13 | CON(Cc1nnn(C)n1)Cc1nc(C(F)(F)F)ccc1C(=O)Nc1nnnn1C [Compound No. 2-97, 2-((methoxy((2-methyl-2H-tetrazol-5-yl)methyl)amino)methyl)-N-(1-methyl-1H-tetrazol-5-yl)-6-(trifluoromethyl)nicotinamide] | 0 | 0 | 0 | 0 | – | – | –
14 | Cn1nnc(CSCc2nc(C(F)(F)F)ccc2C(=O)N(c2nnnn2C)S(C)(=O)=O)n1 [Compound No. 2-110, N-(1-methyl-1H-tetrazol-5-yl)-2-((((2-methyl-2H-tetrazol-5-yl)methyl)thio)methyl)-N-(methylsulfonyl)-6-(trifluoromethyl)nicotinamide] | 0 | 0 | 0 | 0 | – | – | –
15 | Cn1ncnc1COCc1nc(C(F)(F)F)ccc1C(=O)Nc1nnnn1C [Compound No. 1-102, 2-(((1-methyl-1H-1,2,4-triazol-5-yl)methoxy)methyl)-N-(1-methyl-1H-tetrazol-5-yl)-6-(trifluoromethyl)nicotinamide] | 2 | 2 | 3 | 3 | – | – | –
16 | Cn1nnc(COCc2nc(C(F)(F)Cl)ccc2C(=O)Nc2nnnn2C)n1 [Compound No. 2-78, 6-(chlorodifluoromethyl)-N-(1-methyl-1H-tetrazol-5-yl)-2-(((2-methyl-2H-tetrazol-5-yl)methoxy)methyl)nicotinamide] | 0 | 0 | 0 | 0 | – | – | –
17 | Cc1nc(COCc2nc(C(F)(F)F)ccc2C(=O)Nc2nnnn2C)nn1C [Compound No. 2-116, 2-(((1,5-dimethyl-1H-1,2,4-triazol-3-yl)methoxy)methyl)-N-(1-methyl-1H-tetrazol-5-yl)-6-(trifluoromethyl)nicotinamide] | 0 | 0 | 0 | 0 | – | – | –
18 | Cn1nc(COCc2nc(C(F)(F)F)ccc2C(=O)Nc2nnnn2C)nc1C#N [Compound No. 2-134, 2-(((5-cyano-1-methyl-1H-1,2,4-triazol-3-yl)methoxy)methyl)-N-(1-methyl-1H-tetrazol-5-yl)-6-(trifluoromethyl)nicotinamide] | 0 | 0 | 0 | 0 | – | – | –
19 | Cn1nc(COCc2nc(C(F)(F)F)ccc2C(=O)Nc2nnnn2C)nc1Br [Compound No. 2-136, 2-(((5-bromo-1-methyl-1H-1,2,4-triazol-3-yl)methoxy)methyl)-N-(1-methyl-1H-tetrazol-5-yl)-6-(trifluoromethyl)nicotinamide] | 0 | 0 | 0 | 0 | – | – | –
20 | Cn1nnc(COCc2nc(C(F)(F)F)ccc2C(=S)Nc2nnnn2C)n1 [Compound No. 2-106, N-(1-methyl-1H-tetrazol-5-yl)-2-(((2-methyl-2H-tetrazol-5-yl)methoxy)methyl)-6-(trifluoromethyl)pyridin-3-carbothioamide] | 0 | 0 | 0 | 0 | – | – | –
21 | Cn1nnnc1COc1nc(C(F)(F)F)ccc1C(=S)Nc1nnnn1C [Compound No. 1-43, N-(1-methyl-1H-tetrazol-5-yl)-2-((1-methyl-1H-tetrazol-5-yl)methoxy)-6-(trifluoromethyl)pyridin-3-carbothioamide] | – | – | – | – | 0 | – | –
